In patent US20090203577A1 (EXELIXIS, INC., priority 2005, published 2009):
Where two headings read alike, the source gives them in different places.

Target: T1, human farnesoid X receptor (Homo sapiens, UniProt Q96RI1)
T1 construct: CMX-farnesoid X receptor (full length human farnesoid X receptor); expressed in transfected cells; host or cells: CV-1 African Green Monkey Kidney cells
T1 sequence (Q96RI1 1-472 isoform Q96RI1-2): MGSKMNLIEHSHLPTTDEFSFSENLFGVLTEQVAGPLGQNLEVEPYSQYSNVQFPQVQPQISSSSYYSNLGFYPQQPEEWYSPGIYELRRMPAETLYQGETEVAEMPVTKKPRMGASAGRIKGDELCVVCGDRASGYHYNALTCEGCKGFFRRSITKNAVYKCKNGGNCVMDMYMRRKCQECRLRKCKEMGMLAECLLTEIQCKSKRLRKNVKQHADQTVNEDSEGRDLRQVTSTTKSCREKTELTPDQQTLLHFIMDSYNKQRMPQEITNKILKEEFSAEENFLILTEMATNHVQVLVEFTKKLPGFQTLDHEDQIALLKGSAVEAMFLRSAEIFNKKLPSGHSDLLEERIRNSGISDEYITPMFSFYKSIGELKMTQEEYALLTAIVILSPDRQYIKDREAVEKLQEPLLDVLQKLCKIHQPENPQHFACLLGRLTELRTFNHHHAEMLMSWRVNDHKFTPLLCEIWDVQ
T1 sequence (P19793 1-462 partner): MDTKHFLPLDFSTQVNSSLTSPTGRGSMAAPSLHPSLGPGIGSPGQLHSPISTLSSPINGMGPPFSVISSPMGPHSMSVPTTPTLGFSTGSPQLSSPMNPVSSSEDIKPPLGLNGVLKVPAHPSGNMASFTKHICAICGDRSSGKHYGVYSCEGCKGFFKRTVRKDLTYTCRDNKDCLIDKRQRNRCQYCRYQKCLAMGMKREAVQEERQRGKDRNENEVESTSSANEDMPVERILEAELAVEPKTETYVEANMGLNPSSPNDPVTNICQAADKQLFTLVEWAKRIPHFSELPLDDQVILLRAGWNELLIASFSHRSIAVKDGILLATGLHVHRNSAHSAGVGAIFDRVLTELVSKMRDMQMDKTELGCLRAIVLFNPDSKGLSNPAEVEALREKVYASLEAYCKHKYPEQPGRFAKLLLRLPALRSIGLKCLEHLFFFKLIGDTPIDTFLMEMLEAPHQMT
Test: FXR in vitro assays (farnesoid X receptor/ECREx7 co-transfection assay, TR-FRET assay), Table I
Format: cell-based
Conditions: for Emax: read-out: % Efficacy
Experimental: The basic co-transfection protocol for measuring the farnesoid X receptor activity is as follows. CV-1 African Green Monkey Kidney cells were plated 24 hours before transfection to achieve approximately 70-80 percent confluency. […] The assay was allowed to continue for an additional 18-20 hours, after which the cells were lysed, with lysis buffer (1% triton X 100, 10% glycerol, 5 mM Dithiothreitol, 1 mM EGTA, 25 mM Tricine, pH 7.8) and the luciferase activity measured in the presence of Luciferase assay buffer (0.73 mM ATP, 22.3 mm Tricine, 0.11 mM EGTA, 0.55 mM Luciferin, 0.15 mM Coenzyme A, 0.5 mM HEPES, 10 mM Magnesium sulphatc) on a standard luminometer plate reader (PE Biosystems, NorthStar Reader), using recommended operating instructions and conditions.
The dose response curves are generated from an 8 point curve with concentrations differing by ½ LOG units. Each point represents the average of 4 wells of data from a 384 well plate. A curve for the data is generated by using the equation:
Y=Bottom+(Top−Bottom)/(1+10̂((Log EC50−X)*HillSlope))
The EC50/IC50 is therefore defined as the concentration at which an agonist or antagonist elicits a response that is half way between the Top (maximum) and Bottom (baseline) values. The EC50/IC50 values represented are the averages of at least 3 independent experiments.

[1] = agonist activity, one or more of the in vitro assays, read-out: EC50

SMILES	EC50 [1] [nM]	Emax [%]	EC50 [nM]
CC(C)OC(=O)C1=CN(C(=O)c2ccc(CN(C)C)cc2)CC(C)(C)c2c1[nH]c1ccccc21 [Example 107, 1-methylethyl 3-({4-[(dimethylamino)methyl]phenyl}carbonyl)-1,1-dimethyl-1,2,3,6-tetrahydroazepino[4,5-b]indole-5-carboxylate]	1000 to 10000	> 100	–
CC(C)OC(=O)C1=CN(C(=O)c2cccc(CN(C)C)c2)CC(C)(C)c2c1[nH]c1ccccc21 [Example 108, 1-methylethyl 3-({3-[(dimethylamino)methyl]phenyl}-carbonyl)-1,1-dimethyl-1,2,3,6-tetrahydroazepino[4,5-b]indole-5-carboxylate]	100 to 1000	> 100	–
Cc1cc(C(=O)N2C=C(C(=O)OC(C)C)c3[nH]c4ccccc4c3C(C)(C)C2)no1 [Example 109, 1-methylethyl 1,1-dimethyl-3-[(5-methylisoxazol-3-yl)carbonyl]-1,2,3,6-tetrahydroazepino[4,5-b]indole-5-carboxylate]	100 to 1000	> 100	–
CC(C)OC(=O)C1=CN(C(=O)c2ccc(F)cc2C(F)(F)F)CC(C)(C)c2c1[nH]c1ccccc21 [Example 110, 1-methylethyl 3-{[4-fluoro-2-(trifluoromethyl)phenyl]car-bonyl}-1,1-dimethyl-1,2,3,6-tetrahydroazepino[4,5-b]indole-5-carboxylate]	10 to 100	> 100	–
CC(C)OC(=O)C1=CN(C(=O)c2ccc(F)cc2Cl)CC(C)(C)c2c1[nH]c1ccccc21 [Example 111, 1-methylethyl 3-[(2-chloro-4-fluorophenyl)carbonyl]-1,1-dimethyl-1,2,3,6-tetrahydroazepino[4,5-b]indole-5-carboxylate]	10 to 100	> 100	–
CCN(CC)CCCNC(=O)Oc1ccc2c3c([nH]c2c1)C(C(=O)OC(C)C)=CN(C(=O)c1ccc(F)c(F)c1)CC3(C)C [Example 112, 1-methylethyl 8-[({[3-(diethylamino)propyl]amino}carbonyl)oxy]-3-[(3,4-difluorophenyl)carbonyl]-1,1-dimethyl-1,2,3,6-tetrahydroazepino[4,5-b]indole-5-carboxylate]	–	> 100	1000 to 10000
CC(C)OC(=O)C1=CN(C(=O)c2cccc(CCl)c2)CC(C)(C)c2c1[nH]c1ccccc21 [Example 113, 1-methylethyl 3-{[3-(chloromethyl)phenyl]car-bonyl}-1,1-dimethyl-1,2,3,6-tetrahydroazepino[4,5-b]indole-5-carboxylate]	10 to 100	> 100	–
CCN(CC)Cc1cccc(C(=O)N2C=C(C(=O)OC(C)C)c3[nH]c4ccccc4c3C(C)(C)C2)c1 [Example 114, 1-methylethyl 3-({3-[(diethylamino)methyl]phenyl}carbonyl)-1,1-dimethyl-1,2,3,6-tetrahydroazepino[4,5-b]indole-5-carboxylate]	100 to 1000	> 100	–
CC(C)OC(=O)C1=CN(C(=O)c2ccc(F)c(F)c2)CC(C)(C)c2c1[nH]c1ccc(OCc3ccccc3)cc21 [Example 115, 1-methylethyl 3-[(3,4-difluorophenyl)carbonyl]-1,1-dimethyl-9-[(phenylmethyl)oxy]-1,2,3,6-tetrahydroazepino[4,5-b]indole-5-carboxylate]	10 to 100	> 100	–
CC(C)OC(=O)C1=CN(C(=O)c2cccc(CN3CCCC3)c2)CC(C)(C)c2c1[nH]c1ccccc21 [Example 117, 1-methylethyl 1,1-dimethyl-3-{[3-(pyrrolidin-1-ylmethyl)phenyl]carbonyl}-1,2,3,6-tetrahydroazepino[4,5-b]indole-5-carboxylate]	–	> 100	–
CCN1CCN(Cc2cccc(C(=O)N3C=C(C(=O)OC(C)C)c4[nH]c5ccccc5c4C(C)(C)C3)c2)CC1 [Example 120, 1-methylethyl 3-({3-[(4-ethylpiperazin-1-yl)methyl]phenyl}carbonyl)-1,1-dimethyl-1,2,3,6-tetrahydroazepino[4,5-b]indole-5-carboxylate]	100 to 1000	> 100	–
CC1(C)CN(C(=O)c2ccc(F)c(F)c2)C=C(C(=O)CCl)c2[nH]c3ccccc3c21 [Example 121, 2-chloro-1-{3-[(3,4-difluorophenyl)carbonyl]-1,1-dimethyl-1,2,3,6-tetrahydroazepino[4,5-b]indol-5-yl}ethanone]	100 to 1000	< 40	–
CC1(C)OCC(COC(=O)C2=CN(C(=O)c3ccc(F)c(F)c3)CC(C)(C)c3c2[nH]c2ccccc32)O1 (stereo not shown) [Example 122, (2,2-dimethyl-1,3-dioxolan-4-yl)methyl 3-[(3,4-difluorophenyl)carbonyl]-1,1-dimethyl-1,2,3,6-tetrahydroazepino[4,5-b]indole-5-carboxylate]	100 to 1000	> 100	–
COC(=O)C1=CN(C(=O)c2ccc(F)c(F)c2)CC(C)(C)c2c1[nH]c1ccccc21 [Example 123, methyl 3-[(3,4-difluorophenyl)carbonyl]-1,1-dimethyl-1,2,3,6-tetrahydroazepino[4,5-b]indole-5-carboxylate]	100 to 1000	> 100	–
CC1(C)CN(C(=O)c2ccc(F)c(F)c2)C=C(C(=O)OCC(O)CO)c2[nH]c3ccccc3c21 (stereo not shown) [Example 124, 2,3-dihydroxypropyl 3-[(3,4-difluorophenyl)carbonyl]-1,1-dimethyl-1,2,3,6-tetrahydroazepino[4,5-b]indole-5-carboxylate]	10 to 100	> 100	–
CC(C)OC(=O)C1=CN(C(=O)c2cccc(CN3CCOCC3)c2)CC(C)(C)c2c1[nH]c1ccccc21 [Example 125, 1-methylethyl 1,1-dimethyl-3-{[3-(morpholin-4-ylmethyl)phenyl]carbonyl}-1,2,3,6-tetrahydroazepino[4,5-b]indole-5-carboxylate]	–	> 100	–
CC(C)OC(=O)C1=CN(C(=O)c2ccc(F)c(F)c2)CC(C)(C)c2c1[nH]c1cc(OC(=O)NCCN3CCCC3)ccc21 [Example 126, 1-methylethyl 3-[(3,4-difluorophenyl)carbonyl]-1,1-dimethyl-8-({[(2-pyrrolidin-1-ylethyl)amino]carbonyl}oxy)-1,2,3,6-tetrahydroazepino[4,5-b]indole-5-carboxylate]	–	> 100	10 to 100
CC(C)OC(=O)C1=CN(C(=O)c2cccc(C(F)(F)F)c2)CC(C)(C)c2c1[nH]c1ccccc21 [Example 128, 1-methylethyl 1,1-dimethyl-3-{[3-(trifluoromethyl)phenyl]car-bonyl}-1,2,3,6-tetrahydroazepino[4,5-b]indole-carboxylate]	10 to 100	> 100	–
CC1(C)CN(C(=O)c2ccc(F)c(F)c2)C=C(C(=O)OC[C@H](O)CO)c2[nH]c3ccccc3c21 [Example 129, (2R)-2,3-dihydroxypropyl 3-[(3,4-difluorophenyl)carbonyl]-1,1-dimethyl-1,2,3,6-tetrahydroazepino[4,5-b]indole-5-carboxylate]	100 to 1000	> 100	–
CC(C)OC(=O)C1=CN(C(=O)c2cccc(C(F)(F)F)c2F)CC(C)(C)c2c1[nH]c1ccccc21 [Example 133, 1-methylethyl 3-{[2-fluoro-3-(trifluoromethyl)phenyl]car-bonyl}-1,1-dimethyl-1,2,3,6-tetrahydroazepino[4,5-b]indole-5-carboxylate]	10 to 100	> 100	–
CC1(C)CN(C(=O)c2ccc(F)c(F)c2)C=C(C(=O)OC(CF)CF)c2[nH]c3ccccc3c21 [Example 136, 2-fluoro-1-(fluoromethyl)ethyl 3-[(3,4-difluorophenyl)carbonyl]-1,1-dimethyl-1,2,3,6-tetrahydroazepino[4,5-b]indole-5-carboxylate]	1 to 10	> 100	–
